In brackets after ≈: the same amount, converted by molar mass. Read-outs that look alike come from different tables or passages of the source.
What was measured:
[1] = system: Saccharomyces cerevisiae OKI.1282; assay: minimal inhibitory concentration in Sabouraud medium; format: cell-based; settings: Saccharomyces cerevisiae, OKI.1282, 48 h, 48 hours
Excerpt: Saccharomyces cerevisiae OKI.1282
(§1) As a medium Saboroud medium was employed.

[2] = system: Candida albicans CBS.562; assay: as above; format: cell-based; settings: 48 hours
Excerpt: Candida albicans CBS.562 "2"
as §1

[3] = system: Candida tropicalis CBS.433; assay: as above; format: cell-based; settings: Candida tropicalis
Excerpt: Candida tropicalis CBS.433 "3"
as §1

[4] = system: Aspergillus niger CBS.12648; assay: as above; format: cell-based; settings: for MIC: Aspergillus niger
Excerpt: Aspergillus niger CBS.12648
as §1

[5] = system: Aspergillus fumigatus CBS.11326; assay: as above; format: cell-based; settings: Aspergillus fumigatus
Excerpt: Aspergillus fumigatus CBS.11326
as §1

[6] = system: Aspergillus flavus CBS.24765; assay: as above; format: cell-based; settings: Aspergillus flavus
Excerpt: Aspergillus flavus CBS.24765
as §1

[7] = system: Penicillium digitatum CBS.31948; assay: as above; format: cell-based; settings: Penicillium digitatum
Excerpt: Penicillium digitatum CBS.31948
as §1

[8] = system: Penicillium digitatum CCM.F-382; assay: as above; format: cell-based; settings: Penicillium digitatum
Excerpt: Penicillium digitatum CCM.F-382
as §1

[9] = system: Penicillium chrysogenium CBS.19646; assay: as above; format: cell-based; settings: Penicillium
Excerpt: Penicillium chrysogenium CBS.19646
as §1

[10] = system: Penicillium chrysogenium CCM.F-362; assay: as above; format: cell-based; settings: Penicillium
Excerpt: Penicillium chrysogenium CCM.F-362
as §1

[11] = system: Microsporum gypseum ver. vinosum CBS.10064; assay: as above; format: cell-based; settings: Nannizzia gypsea
Excerpt: Microsporum gypseum ver. vinosum CBS.10064
as §1

[12] = system: Sporotrichum schenkii CBS.34035; assay: as above; format: cell-based; settings: Sporotrichum
Excerpt: Sporotrichum schenkii CBS.34035
as §1

[13] = system: Trichophyton rubrum CBS.30338; assay: as above; format: cell-based; settings: for MIC: Trichophyton rubrum
Excerpt: Trichophyton rubrum CBS.30338
as §1

[14] = system: Trichophyton mentagrophytes CBS.50148; assay: as above; format: cell-based; settings: Trichophyton mentagrophytes
Excerpt: Trichophyton mentagrophytes CBS.50148
as §1

[15] = system: Epidermophyton floccosum OKI/IV.; assay: as above; format: cell-based; settings: for MIC: Epidermophyton floccosum, read-out: minimal inhibitory concentration
Excerpt: Epidermophyton floccosum OKI/IV.
as §1

[16] = system: Fusarium graminocorum DSM.11802; assay: as above; format: cell-based
Excerpt: Fusarium graminocorum DSM.11802
as §1

[17] = system: Fusarium oxysporum DSM.10975; assay: as above; format: cell-based
Excerpt: Fusarium oxysporum DSM.10975
as §1

[18] = system: Fusarium monoliforme DSM.11778; assay: as above; format: cell-based; settings: Fusarium
Excerpt: Fusarium monoliforme DSM.11778
as §1

[19] = system: Fusarium culmorum DSM.11425; assay: as above; format: cell-based
Excerpt: Fusarium culmorum DSM.11425
as §1

[20] = system: Aspergillus niger CCM.F-330; assay: as above; format: cell-based; settings: Aspergillus niger
Excerpt: Aspergillus niger CCM.F-330
as §1

[21] = system: Botrytis cinerea; assay: activity against phytopathogenic fungi; format: cell-based
[22] = system: Ascochyta pisi; assay: activity against phytopathogenic fungi; format: cell-based
[23] = system: Cercospora beticola; assay: activity against phytopathogenic fungi; format: cell-based
[24] = system: Taphrina deformans; assay: activity against phytopathogenic fungi; format: cell-based
[25] = system: Phytophtora infestans; format: cell-based
[26] = system: Sclerotinia sclerotiorum; assay: activity against phytopathogenic fungi; format: cell-based
[27] = system: Verticillium albo-atrum; assay: activity against phytopathogenic fungi; format: cell-based
[28] = system: Verticillium dahlise; assay: activity against phytopathogenic fungi; format: cell-based
[29] = system: Venturia; assay: activity against phytopathogenic fungi; format: cell-based
[30] = system: Candida krusei 79/K47; assay: minimal inhibitory concentration in Sabouraud medium; settings: Pichia kudriavzevii, read-out: minimal inhibitory concentration
Description: (§2) Sabouraud medium was inoculated with 10^5 /ml. germ number and the propagation of the fungi was examined after 24, 48, 72, 144 and 288 hours incubation time and the minimal inhibitory concentrations were determined.

[31] = system: Cryptococcus neoform. 78/K16; assay: as above; settings: read-out: minimal inhibitory concentration
Description: as §2

Cc1ccc(N2C(=O)CC(S(=O)(=O)C3CCCCC3)C2=O)cc1 (centres unmarked)
MIC [1]: 25 µg/mL (≈ 74.5 µM) | minimal inhibitory concentration [2]: 25 µg/mL (≈ 74.5 µM) | MIC ([2]; Candida albicans, CBS.562, 48 h): 50 µg/mL (≈ 149 µM) | MIC ([3]; CBS.433, 24 h, 24 hours): 100 µg/mL (≈ 298 µM) | MIC ([3]; CBS.433, 48 h, 48 hours): 150 µg/mL (≈ 447 µM) | minimal inhibitory concentration ([4]; 144 hours): 50 µg/mL (≈ 149 µM) | MIC ([4]; CBS.12648, 72 h, 72 hours): 25 µg/mL (≈ 74.5 µM) | MIC ([4]; CBS.12648, 144 h, 144 hours): 75 µg/mL (≈ 224 µM) | MIC ([4]; CBS.12648, 288 h, 288 hours): 75 µg/mL (≈ 224 µM) | MIC ([5]; CBS.11326, 72 h, 72 hours): 50 µg/mL (≈ 149 µM) | MIC ([5]; CBS.11326, 144 h, 144 hours): 150 µg/mL (≈ 447 µM) | MIC ([5]; CBS.11326, 288 h, 288 hours): 150 µg/mL (≈ 447 µM) | MIC ([6]; CBS.24765, 72 h, 72 hours): 150 µg/mL (≈ 447 µM) | MIC ([6]; CBS.24765, 144 h, 144 hours): 250 µg/mL (≈ 745 µM) | MIC ([7]; CBS.31948, 72 h, 72 hours): 10 µg/mL (≈ 29.8 µM) | MIC ([7]; CBS.31948, 144 h, 144 hours): 10 µg/mL (≈ 29.8 µM) | MIC ([7]; CBS.31948, 288 h, 288 hours): 10 µg/mL (≈ 29.8 µM) | MIC ([8]; CCM.F382, 72 h, 72 hours): 25 µg/mL (≈ 74.5 µM) | MIC ([8]; CCM.F382, 144 h, 144 hours): 25 µg/mL (≈ 74.5 µM) | MIC ([8]; CCM.F382, 288 h, 288 hours): 75 µg/mL (≈ 224 µM) | MIC ([9]; CBS.19646, 72 h, 72 hours): 50 µg/mL (≈ 149 µM) | MIC ([9]; CBS.19646, 144 h, 144 hours): 75 µg/mL (≈ 224 µM) | MIC ([9]; CBS.19646, 288 h, 288 hours): 75 µg/mL (≈ 224 µM) | MIC ([10]; CCM.F362, 72 h, 72 hours): 75 µg/mL (≈ 224 µM) | MIC ([10]; CCM.F362, 144 h, 144 hours): 150 µg/mL (≈ 447 µM) | MIC ([10]; CCM.F362, 288 h, 288 hours): 150 µg/mL (≈ 447 µM) | MIC ([11]; 72 h): 10 µg/mL (≈ 29.8 µM) | MIC ([11]; 144 h): 25 µg/mL (≈ 74.5 µM) | MIC ([11]; 288 h): 25 µg/mL (≈ 74.5 µM) | MIC ([12]; CBS.34035, 72 h, 72 hours): 5 µg/mL (≈ 14.9 µM) | MIC ([12]; CBS.34035, 288 h, 288 hours): 25 µg/mL (≈ 74.5 µM) | minimal inhibitory concentration ([13]; 144 hours): 2.5 µg/mL (≈ 7.45 µM) | minimal inhibitory concentration ([13]; 288 hours): 2.5 µg/mL (≈ 7.45 µM) | MIC ([13]; CBS.30338, 144 h, 144 hours): 5 µg/mL (≈ 14.9 µM) | MIC ([13]; CBS.30338, 288 h, 288 hours): 5 µg/mL (≈ 14.9 µM) | MIC ([14]; CBS.50148, 72 h, 72 hours, read-out: minimal inhibitory concentration): 2.5 µg/mL (≈ 7.45 µM) | MIC ([14]; CBS.50148, 144 h, 144 hours, read-out: minimal inhibitory concentration): 2.5 µg/mL (≈ 7.45 µM) | MIC ([14]; CBS.50148, 288 h, 288 hours, read-out: minimal inhibitory concentration): 5 µg/mL (≈ 14.9 µM) | MIC ([14]; CBS.50148, read-out: Minimal inhibitory concentration inhibiting the growth): 2.5 µg/mL (≈ 7.45 µM) | minimal inhibitory concentration ([15]; 72 hours): 2.5 µg/mL (≈ 7.45 µM) | MIC ([15]; 72 h): 5 µg/mL (≈ 14.9 µM) | MIC ([15]; 144 h): 5 µg/mL (≈ 14.9 µM) | MIC ([15]; 288 h): 5 µg/mL (≈ 14.9 µM) | MIC ([16]; 72 hours): 50 µg/mL (≈ 149 µM) | MIC ([16]; 144 hours): 50 µg/mL (≈ 149 µM) | MIC ([16]; 288 hours): 50 µg/mL (≈ 149 µM) | MIC ([17]; 72 hours): 150 µg/mL (≈ 447 µM) | MIC ([17]; 144 hours): 200 µg/mL (≈ 596 µM) | MIC ([17]; 288 hours): 200 µg/mL (≈ 596 µM) | MIC ([18]; DSM.11778, 72 h, 72 hours): 100 µg/mL (≈ 298 µM) | MIC ([18]; DSM.11778, 144 h, 144 hours): 150 µg/mL (≈ 447 µM) | MIC ([18]; DSM.11778, 288 h, 288 hours): 150 µg/mL (≈ 447 µM) | MIC ([19]; 72 hours): 75 µg/mL (≈ 224 µM) | MIC ([19]; 144 hours): 150 µg/mL (≈ 447 µM) | MIC ([19]; 288 hours): 150 µg/mL (≈ 447 µM) | MIC ([20]; CCM.F330, 72 h, 72 hours): 100 µg/mL (≈ 298 µM) | MIC ([20]; CCM.F330, 144 h, 144 hours): 150 µg/mL (≈ 447 µM) | MIC ([20]; CCM.F330, 288 h, 288 hours): 250 µg/mL (≈ 745 µM) | activity against Botrytis cinerea [21]: active | activity against Ascochyta pisi [22]: active | activity against Cercospora beticola [23]: active | activity against Taphrina deformans [24]: active | activity against Phytophtora infestans [25]: active | activity against Sclerotinia sclerotiorum [26]: active | activity against Verticillium albo-atrum [27]: active | activity against Verticillium dahlise [28]: active | activity against Venturia [29]: active | MIC ([30]; 79/K47, 24 h): 2.5 µg/mL (≈ 7.45 µM) | MIC ([30]; 79/K47, 48 h): 10 µg/mL (≈ 29.8 µM) | MIC ([31]; 24 h): 1 µg/mL (≈ 2.98 µM) | MIC ([31]; 48 h): 10 µg/mL (≈ 29.8 µM)

From US4364958A, “1-Substituted-3-cycloalkyl-sulfonyl-pyrrolidine-2,5-dione derivatives and fungicidal compositions thereof” (Chinoin Gyogyszer es Vegyeszeti Termekek Gyara Rt., priority 1979, dated 1982)
